# Reference: patent publication US20180267021A1, “METHODS AND DEVICES FOR ASSESSING CELL PROPERTIES UNDER CONTROLLED GAS ENVIRONMENTS” (Carnegie Mellon University, priority 2014, published 2018)
# Entries after “also recorded” stand apart in the source; their conditions may differ.
# Assays:
# sickle RBCs [1] = assay: Microfluidic hypoxia assay: anti-sickling effect of Aes-103 on sickle RBCs incubated in vitro; assay type: cell-based, human
# Experimental: (§1) Cell sickling was measured using a double-layer device with a cell channel (5 μm high), a gas channel (100 μm high) and an in-between PDMS film 150 μm in thickness (FIG. 1A). The O2 concentration was controlled by exchanging gas flow in the channel through the PDMS membrane that is gas-permeable (33). […] Sickle RBCs typically form spiky edges and dark coarse texture due to intracellular HbS polymerization, the visual identification of which was enhanced by a band-pass filter (FIG. 1B). Thus the sickled cells were defined as those obviously distorted from their original shape and texture under Oxy state (O2 concentration 20%) to the DeOxy state (O2 concentration <5%). […] The delay time of cell unsickling was defined as the time elapsed between the initiation of reoxygenation (ReOxy) and the point when the RBC fully recovered its pre-sickle morphology in a visibly identifiable manner.
# (§2) For the Aes-103 testing, blood samples from 3 on-HU and 3 off-HU patients were incubated with Aes-103 at different concentrations (0.5, 1, 2, and 5 mM) for one hour at 37° C. before the in vitro sickling test. […] The fractionation gradient was built up with four layers of 2.5 ml Optiprep-DPBS medium of densities of 1.081, 1.091, 1.100 and 1.111 g/ml, respectively. 1 ml blood sample was washed twice with Phosphate Buffered Saline (PBS) at 2000 rpm for 5 minutes at 21° C. and diluted into 70-80% hematocrit. […] The four fractions, Density 1 through Density 4 have mean densities of 1.086±0.005 g/ml, 1.095±0.005 g/ml, 1.105±0.005 g/ml, and >1.111 g/ml, respectively. Fractionated sickle RBCs were then suspended with RPMI-1640 containing 1% w/v Bovine Serum Albumin (BSA) (Sigma-Aldrich, St Louis, Mo.) and stored at 4° C. until shortly before use to avoid metabolic depletion.
# (§3) As Ru(dpp)3C12 is water insoluble, it was dissolved in Acetone-RPMI (volume ratio of 1:2) at 0.8 mg/ml and injected into the cell channel. […] Short-term and long-term hypoxia conditions held the durations of DeOxy state (O2 concentration<5%) about 25 s and 220 s, respectively.
# sickle RBCs [2] = assay: Kinetics of cell sickling of density-fractionated sickle RBC populations, on-HU vs off-HU; assay type: cell-based, human
# Text: In order to quantify the effects of cell density on the kinetics of cell sickling and unsickling, we categorized sickle RBCs into four populations with average cell densities of 1.086±0.005 g/ml (Density 1), 1.095±0.005 g/ml (Density 2), 1.105±0.005 g/ml (Density 3), and >1.111 g/ml (Density 4) for 20 SCD samples from 6 off-HU patients and 14 on-HU patients. The majority of sickle RBCs fell within Density 2 and Density 3 (FIG. 8A). We noticed a significant difference in sickling growth curve among different density populations of individual blood samples under both short-term and long-term DeOxy states (FIGS. 8B and C). Results of delay time of cell sickling and sickled fraction were examined along with cell density and the patient's HU status. Delay time of cell sickling decreased with cell density (FIG. 5A), which can be rationalized by the hydration state of the cells (39, 40).
# as §2, §3
# sickle RBCs [3] = assay: Kinetics of cell sickling and unsickling under transient hypoxia, patient samples on-HU vs off-HU; assay type: cell-based, human
# Experimental: as §1
# Kinetics of individual cell sickling and unsickling under transient hypoxia conditions was quantified by the delay time and the maximum sickled fraction on 25 SCD patient samples: 7 patients without HU therapy (off-HU) and 18 patients with HU therapy (on-HU) (see patient's HU status in Materials and Methods Text). Short-term and a long-term hypoxia conditions were created to simulate normal and retarded transit scenarios in microvasculature (FIGS. 2A-B). Representative cell sickling profiles upon changes in O2 concentration are shown (FIG. 2C). Compared to the relatively long sickling process (>100 s for sickled fraction rising from zero to a saturated, maximum level), the unsickling process after ReOxy was much faster (<20 s for sickled fraction reducing from the saturated level to zero), disregarding the small discrepancy in the DeOxy and ReOxy rates (<20 s). This observation applied to all patient sample.
# as §2
# sickle RBCs [4] = assay: Individual sickle RBC rheology through micro-gates under transient hypoxia, on-HU vs off-HU
Structure (SMILES),"change in cell sickling from baseline (sickle RBCs [1]; 2 mM Aes-103 incubation, each patient sample)","maximum sickled fraction (sickle RBCs [1]; 5 mM Aes-103, one hour at 37° C., hypoxia 2% O2, 3 on-HU and 3 off-HU patient samples) [%]","sickled fraction of one patient sample (sickle RBCs [1]; 5 mM Aes-103, one patient sample)","dependence of sickled fraction on Aes-103 concentration (anti-sickling effect) (sickle RBCs [1]; Aes-103 0.5-5 mM, long-term hypoxia)","delay time for unsickling, on-HU vs off-HU (sickle RBCs [2]; Densities 1 through 3, long-term DeOxy)","delay time of cell sickling with HU therapy, Densities 3 and 4 (sickle RBCs [2]; Densities 3 and 4, p=0.01 and p=0.06)","mean delay time of cell sickling, on-HU vs off-HU cases (sickle RBCs [2]; density-fractionated populations, short-term DeOxy, p<0.02)","sickled fraction with HU therapy (sickle RBCs [2]; short-term hypoxia, particularly Densities 3 and 4 (p=0.01 and p=0.001))","delay time of sickling, on-HU group compared with off-HU group (sickle RBCs [3]; 5% sickled fraction, p<0.01)","delay time of cell sickling, six cases (sickle RBCs [3]; 10% sickled fraction, six cases, suggesting beneficial effect of HU therapy) [s]","influence of HU therapy on delay time of cell sickling to saturated sickled fraction (sickle RBCs [3]; long-term DeOxy state, p<0.02)","delay time of cell unsickling, on-HU vs off-HU (sickle RBCs [3]; long-term DeOxy state, p=0.24)","maximum sickled fraction (sickle RBCs [3]; short-term DeOxy state (O2 <5% for 25 s), all on-HU samples, significantly lower than off-HU (p=0.03))","capillary obstruction ratio, on-HU vs off-HU (sickle RBCs [4]; 7 on-HU and 7 off-HU patient samples, DeOxy state, p=0.04)","cell velocity, on-HU vs off-HU (sickle RBCs [4]; individual RBCs through periodic micro-gates)"
"O=Cc1ccc(CO)o1 [Aes-103, 5-hydroxymethylfurfural]",significant decrease in cell sickling from its baseline,< 5,nearly zero,strong correlation with the drug concentration; also recorded: decreased with drug concentration; also recorded: dosage-dependent manner,,,,,,,,,,,
"NC(=O)NO [HU, hydroxyurea]",,,,,did not vary significantly,marked extension,statistically higher,significantly suppressed,significantly longer,> 60,statistically significant,no significant difference,below 15%,significantly lower,lower than those for the off-HU group
